Laboratory results taken from US20210022342A1, “THE USE OF SAFENERS TO IMPROVE RESISTANCE OF RICE CROP TO HERBICIDES” (Adama Agan Ltd., priority 2018, published 2021).

Experiments:
Format in all cases: in vivo
[1] = tested on: ACCase inhibitor resistant rice seeds (ML0831265-01493 (ATCC deposit PTA-12933, mutation G2096S)); experiment: Safener seed treatment with propaquizafop or quizalofop: regrowth of resistant rice
Procedure: (§1) Seeds of a proprietary ACCase resistant rice variety, i.e. RTA1, was used. RTA1, ML0831265-01493 (ATCC deposit PTA-12933, mutation G2096S) variety rice seeds were supplied by RiceTec. RTA1 rice cultivar contains a single mutation in the ACCase gene that confer ACCase resistance. The mutation makes the enzyme insensitive to quizalofop.
(§2) Mutant rice seeds were planted in commercial greenhouse soil mix in 10×10×10 cm plastic pots. 250 mL of soil was put into each pot, then the seeds were placed on top of the soil and the seeds were covered with 100-150 mL of soil. Approximately 8-10 seeds were planted per pot. The pots were then watered with 100 mL of a mixture of Miracle Grow and Fertiplus (iron supplement). The pots were placed in the greenhouse (38° C./20° C. day/night, 14 h photoperiod with supplemental light). The average light intensity in the greenhouse was 150 μM/m^2/sec.
Plants were grown until 10 days after planting and then the pots were transferred to trays and the plants were grown under water. :Plants were treated when they reached the 3-5 leaf stage. […]
(§3) Four days after treatment, the tops of the plants were cut off so that approximately 2.5 cm of plant from the top of the soil remain. The plants were allowed to regrow for 3 days at which time the amount of regrowth was weighed by measuring the amount of fresh weight of tissue that regrew. Comparing the weight of regrowth of shoots after cutting indicates the level of phytotoxicity the herbicide had on the mutant rice plant and the increased level of resistance of the mutant rice to the herbicide when the herbicide was applied in combination with the safener.
The safeners were also applied in various w/w ratios of the ACCase inhibiting herbicides to the rice seeds.

[2] = tested on: mutant rice (ML0831265-01493, ATCC deposit PTA-12933, mutation G2096S); experiment: Tank mixes of safeners with propaquizafop or quizalofop: regrowth of mutant rice
Procedure: as §1, §2
Plants were grown until 10 days after planting and then the pots were transferred to trays and the plants were grown under water. :Plants were treated when they reached the 3-5 leaf stage.
Safeners were tank mixed with the herbicide in the spray bottle.
as §3
The safeners were applied in various w/w ratios with the ACCase inhibiting herbicides to the rice plant.

[3] = tested on: HPPD resistant rice variety; experiment: HPPD herbicides with isoxadifen, regrowth of HPPD resistant mutant rice
Procedure: The rice cultivar contains mutation(s) in the HPPD gene which makes the enzyme insensitive to mesotrione and/or tembotrione and/or isoxaflutole.
(§4) Seed of HPPD resistant rice variety is planted in a commercial greenhouse soil mix in 10×10×10 cm plastic pots. 250 mL of soil is put into each pot, then the seed is placed on top of the soil and the seed is covered with 100-150 mL of soil. Approximately 8-10 seeds are planted per pot. The pots are then watered with 100 mL of a mixture of Miracle Grow and Fertiplus (iron supplement). The pots are placed in the greenhouse (38° C./20° C. day/night, 14 h photoperiod with supplemental light). The average light intensity in the greenhouse was 150 μM/m^2/sec.
Plants are grown until 10 days after planting and then the pots are transferred to trays and plants are grown under water. Plants are treated when they reach the 3-5 leaf stage.
Generally, plants are treated with 50-250 g/ha of mesotrione or tembotrione or isoxaflutole through a moving nozzle spray system in a spray volume of 200 l/ha or 187 l/ha. Isoxadifen is tank mixed with the herbicide in the spray bottle. The weight ratio of the safener to the herbicide in the tank mix is from 1:1 to 1:5.
Four days after reatment, the tops of the plants are cut off to approximately 3 cm from the top of the soil. The plants are allowed to regrow for 7 days at which time the amount of regrowth is measured by cutting any growth above 3 cm above the top of soil and weighing the tissue that regrew.
Efficacy test is conducted to determine the effect of mesotrione on mutant rice in the presence of isoxadifen.
The weight the regrown shoot on mutant rice applied with mesotrione is compared with the weight of regrown shoot on mutant rice applied with mesotrione and isoxadifen at various rates.

mutant rice = experiment: Regrowth of mutant rice under low and high light intensity; conditions: for Regrowth (mg FW): with safener, herbicide 0 g/ha
Text: as §3

[4] = tested on: ALS resistant rice variety (A205V and G654E substitution); experiment: Imazamox dose response with or without isoxadifen, regrowth, ALS resistant rice
Procedure: as §4, with “an ALS” for “HPPD”, “variety (rice plant with the A205V and G654E substitution (ATCC accession numbers PTA-123859, PTA-123860 and/or PTA-123861)” for “variety”, “is” for “was”
(§5) Plants are grown until 10 days after planting and then the pots are transferred to trays and the plants are grown under water. Plants are treated when they reach the 3-5 leaf stage.
(§6) Generally, plants are treated through a moving nozzle spray system in a spray volume of 200 l/ha or 187 l/ha. Isoxadifen is tank mixed with the herbicide in the spray bottle at a rate of 100 g/ha.
(§7) Four days after treatment, the tops of the plants are cut off to approximately 3 cm from the top of the soil. The plants are allowed to regrow for 7 days at which time the amount of regrowth is measured by cutting any growth above 3 cm above the top of soil and weighing the tissue that regrew.
Efficacy tests were conducted to determine the effect of imazamox on rice plant with the A205V and G654E substitutions (ATCC accession numbers PTA-123859, PTA-123860 and/or PTA-123861) in the presence of safener (isoxadifen).
(§8) The imazamox (in rates of 0, 2.2, 6.6, 19.7, 54.9 and 177.3 g/ha) was applied on wild type rice and herbicide resistance rice in the presence or absence of safener (isoxadifen at 100 g/ha).
(§9) The improvement in regrowth was calculated by subtracting the regrowth from a) wild type rice and wild type rice with isoxadifen; b) herbicide resistant rice; and c) herbicide resistant rice and isoxadifen.
(§10) Calculations were done for each application rate of imazamox. The efficacy of safener alone and mutation alone on decreasing herbicide effect/increasing herbicide resistance were calculated. The relative fresh weight re-growth is the percentage of activity (for Colby).
(§11) The re-growth data was implemented in curve and the synergistic effect was calculated. The observed efficacy is higher than calculated efficacy.

[5] = tested on: wild type rice (Non-Traited Rice); experiment: Imazamox dose response with or without isoxadifen, regrowth, wild type rice; conditions: for Calculated effect of Safener (relative fresh weight re-growth): difference with and without isoxadifen on Non-Traited Rice
Procedure: as §4, with “an ALS” for “HPPD”, “variety (rice plant with the A205V and G654E substitution (ATCC accession numbers PTA-123859, PTA-123860 and/or PTA-123861)” for “variety”, “is” for “was”
as §5, §6, §7, §8, §9, §10, §11

[6] = isoxaflutole with isoxadifen vs same mutant rice not treated with isoxadifen
[7] = mesotrione with isoxadifen vs same mutant rice not treated with isoxadifen
[8] = tembotrione with isoxadifen vs same mutant rice not treated with isoxadifen

O=C(O)C1=NOC(c2ccccc2)(c2ccccc2)C1 [Isoxadifen, isoxadifen]
Regrowth (fresh weight mg) ([1]; propaquizafop, safener seed treatment 0.5 g/kg of seed): 133 mg
Regrowth (fresh weight mg) ([1]; propaquizafop, safener seed treatment 1 g/kg of seed): 170 mg
Regrowth (fresh weight mg) ([1]; propaquizafop, safener seed treatment 2 g/kg of seed): 298 mg
Regrowth (fresh weight mg) ([1]; quizalofop, safener seed treatment 0.5 g/kg of seed): 165 mg
Regrowth (fresh weight mg) ([1]; quizalofop, safener seed treatment 1 g/kg of seed): 103 mg
Regrowth (fresh weight mg) ([1]; quizalofop, safener seed treatment 2 g/kg of seed): 80 mg
Regrowth (fresh weight mg) ([2]; tank mix with propaquizafop 50 g/ha, safener 12.5 g/ha): 38 mg
Regrowth (fresh weight mg) ([2]; tank mix with propaquizafop 50 g/ha, safener 25 g/ha): 258 mg
Regrowth (fresh weight mg) ([2]; tank mix with propaquizafop 50 g/ha, safener 50 g/ha): 310 mg
Regrowth (fresh weight mg) ([2]; tank mix with propaquizafop 50 g/ha, safener 100 g/ha): 488 mg
Regrowth (fresh weight mg) ([2]; tank mix with quizalofop 40 g/ha, safener 12.5 g/ha): 87 mg
Regrowth (fresh weight mg) ([2]; tank mix with quizalofop 40 g/ha, safener 25 g/ha): 285 mg
Regrowth (fresh weight mg) ([2]; tank mix with quizalofop 40 g/ha, safener 50 g/ha): 335 mg
Regrowth (fresh weight mg) ([2]; tank mix with quizalofop 40 g/ha, safener 100 g/ha): 462 mg
level of resistance of the mutant rice to isoxaflutole [3, 6]: significantly increases the level of resistance
phytotoxicity of isoxaflutole on the mutant rice [3, 6]: significantly reduces the phytotoxicity
level of resistance of the mutant rice to mesotrione [3, 7]: significantly increases the level of resistance
phytotoxicity of mesotrione on the mutant rice [3, 7]: significantly reduces the phytotoxicity
level of resistance of the mutant rice to tembotrione [3, 8]: significantly increases the level of resistance
phytotoxicity of tembotrione on the mutant rice [3, 8]: significantly reduces the phytotoxicity
regrowth of the mutant rice (mutant rice; high light intensity, quizalofop with isoxadifen, any of the rates tested): regrowth was not significant affected
Regrowth (mg FW) (mutant rice; high light intensity): 540 mg FW
reduction in growth of the mutant rice (mutant rice; low light intensity, 40 g/ha quizalofop with 100 g/ha isoxadifen): less than 20%
Regrowth (mg FW) (mutant rice; low light intensity): 183 mg FW

COCc1cnc(C2=NC(C)(C(C)C)C(=O)N2)c(C(=O)O)c1 (racemic) [Imazamox, 2-[(RS)-4-isopropyl-4-methyl-5-oxo-2-imidazolin-2-yl]-5-methoxymethylnicotinic acid]
Relative fresh weight re-growth after treatment ([4]; Mutant & Safener (isoxadifen 100 g/ha), imazamox 2.2 g/ha): 1.17
Relative fresh weight re-growth after treatment ([4]; Mutant & Safener (isoxadifen 100 g/ha), imazamox 6.6 g/ha): 1.33
Relative fresh weight re-growth after treatment ([4]; Mutant & Safener (isoxadifen 100 g/ha), imazamox 19.7 g/ha): 1.14
Relative fresh weight re-growth after treatment ([4]; Mutant & Safener (isoxadifen 100 g/ha), imazamox 54.9 g/ha): 0.53
Relative fresh weight re-growth after treatment ([4]; Mutant & Safener (isoxadifen 100 g/ha), imazamox 177.3 g/ha): 0.13
Relative fresh weight re-growth after treatment ([4]; Mutant, no safener, imazamox 2.2 g/ha): 0.93
Relative fresh weight re-growth after treatment ([4]; Mutant, no safener, imazamox 6.6 g/ha): 0.99
Relative fresh weight re-growth after treatment ([4]; Mutant, no safener, imazamox 19.7 g/ha): 0.68
Relative fresh weight re-growth after treatment ([4]; Mutant, no safener, imazamox 54.9 g/ha): 0.42
Relative fresh weight re-growth after treatment ([4]; Mutant, no safener, imazamox 177.3 g/ha): 0.15
Calculated efficacy base on Colby (%) ([4]; expected for mutant & safener, imazamox 42 g/ha): 50%
additive effect of safener and mutant on ED50 ([4]; expected, 4+85): 89 folds
observed increase in ED50 ([4]; herbicide resistant rice with safener vs the wildtype): 120 folds
Observed efficacy (%) ([4]; mutant & safener, imazamox 42 g/ha): 77%
Efficacy at ED50 of mutant- 42 g/ha (%) ([4]; mutant alone, imazamox 42 g/ha): 50%
increase in tolerance to herbicide (ED50) by the mutation ([4]; mutant rice vs wildtype rice, no safener): 85 fold
Relative fresh weight re-growth after treatment ([5]; Non-Traited Rice, imazamox 2.2 g/ha): 0.36
Relative fresh weight re-growth after treatment ([5]; Non-Traited Rice, imazamox 6.6 g/ha): 0.16
Relative fresh weight re-growth after treatment ([5]; Non-Traited Rice, imazamox 19.7 g/ha): 0.14
Relative fresh weight re-growth after treatment ([5]; Non-Traited Rice, imazamox 54.9 g/ha): 0.11
Relative fresh weight re-growth after treatment ([5]; Non-Traited Rice, imazamox 177.3 g/ha): 0.09
Relative fresh weight re-growth after treatment ([5]; Safener & Non-Traited Rice (isoxadifen 100 g/ha), imazamox 2.2 g/ha): 0.47
Relative fresh weight re-growth after treatment ([5]; Safener & Non-Traited Rice (isoxadifen 100 g/ha), imazamox 6.6 g/ha): 0.17
Relative fresh weight re-growth after treatment ([5]; Safener & Non-Traited Rice (isoxadifen 100 g/ha), imazamox 19.7 g/ha): 0.06
Relative fresh weight re-growth after treatment ([5]; Safener & Non-Traited Rice (isoxadifen 100 g/ha), imazamox 54.9 g/ha): 0.05
Relative fresh weight re-growth after treatment ([5]; Safener & Non-Traited Rice (isoxadifen 100 g/ha), imazamox 177.3 g/ha): 0.05
Efficacy at ED50 of mutant- 42 g/ha (%) ([5]; calculated effect of safener alone, imazamox 42 g/ha): 0%
Calculated effect of Safener (relative fresh weight re-growth) ([5]; imazamox 2.2 g/ha): 0.12
Calculated effect of Safener (relative fresh weight re-growth) ([5]; imazamox 6.6 g/ha): 0.02
Calculated effect of Safener (relative fresh weight re-growth) ([5]; imazamox 19.7 g/ha): −0.08
Calculated effect of Safener (relative fresh weight re-growth) ([5]; imazamox 54.9 g/ha): −0.06
Calculated effect of Safener (relative fresh weight re-growth) ([5]; imazamox 177.3 g/ha): −0.04
increase of resistance (ED50) by the safener ([5]; wildtype rice with safener vs without): 4 folds
